Patent US6730792B2, “β3 adrenergic agonists” (Eli Lilly and Company, priority 2000, dated 2004)

Each molecule was assayed against T1, human β3 adrenergic receptor (Homo sapiens, UniProt P13945) (assay: whole cell receptor coupled c-AMP assay, human β3 receptor in CHO cells (EC50, Emax relative to isoproterenol)). Settings: Emax ± standard error of the mean; average of at least 3 runs except where n = 1; compound tested in the isolated form listed.
T1 construct: expressed in transfected cells; host or cells: DXB-11 Chinese hamster ovary (CHO) cell line, stably transfected (phd expression vector)
T1 sequence (P13945 whole entry): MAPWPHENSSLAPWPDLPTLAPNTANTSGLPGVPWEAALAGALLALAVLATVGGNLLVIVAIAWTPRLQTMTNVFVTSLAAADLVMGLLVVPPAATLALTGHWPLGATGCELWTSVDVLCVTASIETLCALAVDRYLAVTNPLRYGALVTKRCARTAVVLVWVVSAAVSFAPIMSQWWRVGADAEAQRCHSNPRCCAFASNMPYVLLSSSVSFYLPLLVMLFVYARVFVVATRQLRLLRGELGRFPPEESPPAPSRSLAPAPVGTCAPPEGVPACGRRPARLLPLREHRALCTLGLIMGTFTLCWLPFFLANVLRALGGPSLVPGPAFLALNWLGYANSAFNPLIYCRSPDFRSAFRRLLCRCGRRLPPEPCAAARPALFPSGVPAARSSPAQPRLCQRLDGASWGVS
Format: cell-based
Text: The genes encoding the human β1-adrenergic receptor (Frielle et al., Proc. Natl. Acad. Sci., 84:7920-7924, 1987), the human β2-adrenergic receptor (Kobika et al., Proc. Natl. Acad. Sci., 84:46-50, 1987, Emorine et al., Proc. Natl. Acad. Sci., 84:6995-6999, 1987) and the human β3 adrenergic receptor (Granneman et al., Molecular Pharmacology, 44(2):264-70, 1993) are individually subcloned into a phd expression vector (Grinnell et al., Bio/Technology, 5:1189-1192, 1987) and transfected into the DXB-11 Chinese hamster ovary (CHO) cell line by calcium phosphate precipitation methodology. The stably transfected cells are grown to 95% confluency in 95% Dulbecco's modified Eagles Medium (DMEM), 5% fetal bovine serum and 0.01% proline. Media is removed and the cells are washed with phosphate buffered (pH 7.4) saline (without magnesium and calcium). Cells are then lifted using an enzyme free cell dissociation solution (Specialty Media, Lavallette, N.J.) and pelleted by centrifugation.
Cells from each of the above cell lines are resuspended and added (20,000/well) to a 96-well plate. Cells are incubated at 37° C. with representative compounds of the invention for 20 minutes in buffer (Hank's balanced salt solution, 10 mM HEPES, 0.1% BSA, 1 mM L-ascorbic acid, 0.2% dimethyl sulfoxide, 1 mm 3-isobutyl-1-methylxanthine, pH 7.4). After halting the incubation with quench buffer (50 mM Na Acetate, 0.25% Triton X-100, pH 5.8), the c-AMP level is quantified by scintillation proximity assay (SPA) using a modification of the commercially available c-AMP kit (Amersham, Arlington Heights, Ill.) with rabbit anti-cAMP antibody (ICN Biomedicals, Aurora, Ohio) for the kit.
Sigmoidal dose response curves, from the whole cell receptor coupled c-AMP assay are fit to a four parameter logistic equation using non linear regression: y=(a−d)/(1+(Dose/c)^b)+d where a and d are responses at zero and maximal dose, b is the slope factor and c is the EC50 as previously described (DeLean et al., Am. J. Physiol., 235, E97-E102, 1978). EC50 is assessed as the concentration producing 50% of the maximum response to each agonist.
Isoproterenol is accepted in the art as a non-selective β3 agonist and is widely used as a comparator in evaluating the activity of compounds. See Trends in Pharm. Sci., 15:3, 1994. The % intrinsic activity (Emax) of representative compounds of the invention is assessed relative to isoproterenol by the compound's maximal response divided by the isoproterenol maximal response times 100.

| Emax (%) ± SEM | Structure (SMILES) |
| --- | --- |
| 21.0 ± 3.4% | CC(C)(Cc1ccc(Oc2ncccc2C#N)cc1)NC[C@H](O)COc1ccccc1N1CCCC1=O [Example 58] |
| <10% | CC(C)(Cc1ccc(Oc2ccc(C(N)=O)cn2)cc1)NC[C@H](O)COc1cccc(C2=NCCN2)c1 [Example 59] |
| 70.8 ± 3.1% | CC(C)(Cc1ccc(Oc2ncccc2C#N)cc1)NC[C@H](O)COc1ccccc1-c1ccon1.Cl [Example 60] |
| 32.8 ± 4.3% | CC(C)(Cc1ccc(Oc2ncccc2C#N)cc1)NC[C@H](O)COc1ccccc1-c1ccnc(N)n1 [Example 61] |
| 24.7 ± 5.2% | CC(C)(Cc1ccc(Oc2ncccc2C#N)cc1)NC[C@H](O)COc1ccc(-c2ccno2)cc1.O=C(O)C(F)(F)F [Example 62] |
| 52.6 ± 2.5% | CC(C)(Cc1ccc(Oc2ncccc2C#N)cc1)NC[C@H](O)COc1ccc(F)cc1-c1cccs1.O=C(O)C(=O)O [Example 63] |
| 30.5 ± 6.8% | CC(C)(Cc1ccc(Oc2ncccc2C#N)cc1)NC[C@H](O)COc1cccc(F)c1-c1cccs1.O=C(O)C(F)(F)F [Example 64] |
| 55.9 ± 5.8% | CC(C)(Cc1ccc(Oc2ncccc2C#N)cc1)NC[C@H](O)COc1ccccc1-c1cnco1.Cl [Example 65] |
| 26.6 n = 1% | Cn1nccc1-c1ccccc1OC[C@@H](O)CNC(C)(C)Cc1ccc(Oc2ncccc2C(N)=O)cc1 [Example 66] |
| 77.4 n = 1% | Cn1ccc(-c2ccccc2OC[C@@H](O)CNC(C)(C)Cc2ccc(Oc3ccc(C(N)=O)cn3)cc2)n1 [Example 67] |
| 83.7 ± 3.0% | CC(C)(Cc1ccc(Oc2ncccc2C(N)=O)cc1)NC[C@H](O)COc1ccccc1-c1cccs1 [Example 68] |
| 80.7 ± 4.4% | CC(C)(Cc1ccc(Oc2ncccc2C(N)=O)cc1)NC[C@H](O)COc1ccccc1-c1cccs1.Cl [Example 69] |
| 73.8 ± 6.0% | CC(C)(Cc1ccc(Oc2ncccc2C(N)=O)cc1)NC[C@H](O)COc1ccccc1-c1nccs1 [Example 70] |
| 65.6 ± 1.3% | CC(C)(Cc1ccc(Oc2ncccc2C(N)=O)cc1)NC[C@H](O)COc1ccccc1-c1nccs1.Cl [Example 71] |
| 67.6 ± 7.1% | CC(C)(Cc1ccc(Oc2ncccc2C(N)=O)cc1)NC[C@H](O)COc1ccccc1-c1ccno1 [Example 72] |
| 69.5 ± 0.1% | CC(C)(Cc1ccc(Oc2ncccc2C(N)=O)cc1)NC[C@H](O)COc1ccccc1-c1ccno1.Cl [Example 73] |
| 36.8 n = 1% | CC(C)(Cc1ccc(Oc2ncccc2C(N)=O)cc1)NC[C@H](O)COc1ccccc1-c1ccn[nH]1 [Example 74] |
| 40.3 ± 3.7% | CC(C)(Cc1ccc(Oc2ccc(C(N)=O)cn2)cc1)NC[C@H](O)COc1ccccc1-c1ccncn1 [Example 75] |
| 48.8 ± 5.5% | CC(C)(Cc1ccc(Oc2ncccc2C(N)=O)cc1)NC[C@H](O)COc1ccccc1-c1ccncn1 [Example 76] |
| 22.4 ± 4.6% | CC(C)(Cc1ccc(Oc2ncccc2C(N)=O)cc1)NC[C@H](O)COc1ccccc1N1CCCC1=O [Example 77] |
| 30.3 ± 5.1% | CC(C)(Cc1ccc(Oc2ncccc2C(N)=O)cc1)NC[C@H](O)COc1ccccc1N1CCOCC1.Cl.Cl [Example 78] |
| 21.3 ± 3.3% | CC(C)(Cc1ccc(Oc2ncccc2C(N)=O)cc1)NC[C@H](O)COc1ccccc1N1CCCCC1.Cl.Cl [Example 79] |
| 12.3 ± 0.2% | CC(C)(Cc1ccc(Oc2ncccc2C(N)=O)cc1)NC[C@H](O)COc1ccccc1N1CCNCC1.Cl.Cl.Cl [Example 80] |
| 60.4 ± 5.1% | CC(C)(Cc1ccc(Oc2ncccc2C(N)=O)cc1)NC[C@H](O)COc1ccccc1-c1nc2ccccc2o1 [Example 81] |
| 45.9 ± 10.7% | CC(C)(Cc1ccc(Oc2ncccc2C(N)=O)cc1)NC[C@H](O)COc1ccccc1-c1nc2ccccc2s1 [Example 82] |
| 83.5 ± 4.4% | CC1(C)COC(c2ccccc2OC[C@@H](O)CNC(C)(C)Cc2ccc(Oc3ncccc3C(N)=O)cc2)=N1.Cl [Example 83] |
| 72.1 ± 6.2% | CC(C)(Cc1ccc(Oc2ncccc2C(N)=O)cc1)NC[C@H](O)COc1ccccc1N1CCCC1 [Example 84] |

| Emax (%) ± SEM | Structure (SMILES) |
| --- | --- |
| 69.2 ± 12.1% | CC(C)(Cc1ccc(Oc2ncccc2C(N)=O)cc1)NC[C@H](O)COc1ccccc1-n1cccc1.Cl [Example 85] |
| 64.6 ± 3.3% | CC(C)(Cc1ccc(Oc2ncccc2C(N)=O)cc1)NC[C@H](O)COc1ccccc1-c1nnco1 [Example 86] |
| 14.2 n = 1% | CC(C)(Cc1ccc(Oc2ncccc2C(N)=O)cc1)NC[C@H](O)COc1cc(Cl)ccc1-c1nnco1 [Example 87] |
| <10% | CC(C)(Cc1ccc(Oc2ncccc2C(N)=O)cc1)NC[C@H](O)COc1cccc(C2=NCCN2)c1 [Example 88] |
| 71.8 ± 2.5% | CC(C)(Cc1ccc(Oc2ncccc2C(N)=O)cc1)NC[C@H](O)COc1ccccc1-c1ccon1.Cl [Example 89] |
| 31.5 ± 2.8% | CC(C)(Cc1ccc(Oc2ncccc2C(N)=O)cc1)NC[C@H](O)COc1ccccc1-c1ccnc(N)n1 [Example 90] |
| 24.9 ± 9.3% | CC(C)(Cc1ccc(Oc2ncccc2C(N)=O)cc1)NC[C@H](O)COc1cccc(-c2ccnc(N)n2)c1 [Example 91] |
| 14.4 n = 1% | CC(C)(Cc1ccc(Oc2ncccc2C(N)=O)cc1)NC[C@H](O)COc1cccc(-c2cc[nH]n2)c1 [Example 92] |
| <10% | CC(C)(Cc1ccc(Oc2ncccc2C(N)=O)cc1)NC[C@H](O)COc1cccc(-c2ccno2)c1 [Example 93] |
| <10% | CC(C)(Cc1ccc(Oc2ncccc2C(N)=O)cc1)NC[C@H](O)COc1ccc(-c2ccno2)cc1 [Example 94] |
| 78.1 ± 6.6% | CC(C)(Cc1ccc(Oc2ncccc2C(N)=O)cc1)NC[C@H](O)COc1ccccc1-c1ccns1.O=C(O)C(=O)O [Example 96] |
| 52.4 ± 0.8% | CC(C)(Cc1ccc(Oc2ncccc2C(N)=O)cc1)NC[C@H](O)COc1ccccc1-c1nncs1.O=C(O)C(=O)O [Example 97] |
| 39.2 ± 4.0% | CC(C)(Cc1ccc(Oc2ncccc2C(N)=O)cc1)NC[C@H](O)COc1ccccc1-c1csnn1.O=C(O)C(=O)O [Example 98] |
| 67.4 ± 4.0% | CC(C)(Cc1ccc(Oc2ncccc2C(N)=O)cc1)NC[C@H](O)COc1ccccc1-c1cnco1.Cl [Example 101] |
| 46.1 ± 4.5% | CC(C)(Cc1ccc(Oc2ncccc2C(N)=O)cc1)NC[C@H](O)COc1ccccc1-n1cccn1.Cl [Example 102] |
| 21.1 ± 0.1% | CC(C)(Cc1ccc(Oc2ncccc2C(N)=O)cc1)NC[C@H](O)COc1ccccc1N1CCNC1=O [Example 103] |
| 36.0 ± 5.0% | CC(C)(Cc1ccc(Oc2ncccc2C(N)=O)cc1)NC[C@H](O)COc1ccccc1-n1ccnc1.Cl [Example 104] |
| <10% | CCOC(=O)c1cccnc1Oc1ccc(CC(C)(C)NC[C@H](O)COc2ccccc2-c2ccnn2C)cc1 [Example 105] |
| 53.2 ± 2.4% | CCOC(=O)c1cccnc1Oc1ccc(CC(C)(C)NC[C@H](O)COc2ccccc2-c2ccn(C)n2)cc1 [Example 106] |
| 84.3 ± 5.3% | CCOC(=O)c1cccnc1Oc1ccc(CC(C)(C)NC[C@H](O)COc2ccccc2-c2cccs2)cc1 [Example 107] |
| 87.1 ± 11.9% | CCOC(=O)c1cccnc1Oc1ccc(CC(C)(C)NC[C@H](O)COc2ccccc2-c2cccs2)cc1.O=C(O)C(F)(F)F [Example 108] |
| 61.4 ± 4.4% | CCOC(=O)c1cccnc1Oc1ccc(CC(C)(C)NC[C@H](O)COc2ccccc2-c2nccs2)cc1 [Example 109] |
| 60.3 ± 3.9% | CCOC(=O)c1cccnc1Oc1ccc(CC(C)(C)NC[C@H](O)COc2ccccc2-c2ccno2)cc1 [Example 110] |
| 23.6 n = 1% | CCOC(=O)c1cccnc1Oc1ccc(CC(C)(C)NC[C@H](O)COc2ccccc2-c2ccn[nH]2)cc1 [Example 111] |
| 56.9 ± 8.6% | CCOC(=O)c1cccnc1Oc1ccc(CC(C)(C)NC[C@H](O)COc2ccccc2-c2ccno2)cc1.O=C(O)C(F)(F)F [Example 112] |
| 20.7 n = 1% | COC(=O)c1ccc(Oc2ccc(CC(C)(C)NC[C@H](O)COc3ccccc3-c3ccnn3C)cc2)nc1 [Example 113] |
